Assays:
[1] = biological target: MAPK14 (human) (UniProt Q16539); experiment: Inhibition of LPS-Stimulated TNF-alpha Production in Human Whole Blood
[2] = biological target: MAPK14 (UniProt Q16539); experiment: Inhibition of MAPK14 Kinase Activity
MAPK14, sequence (Q16539 whole entry, looked up): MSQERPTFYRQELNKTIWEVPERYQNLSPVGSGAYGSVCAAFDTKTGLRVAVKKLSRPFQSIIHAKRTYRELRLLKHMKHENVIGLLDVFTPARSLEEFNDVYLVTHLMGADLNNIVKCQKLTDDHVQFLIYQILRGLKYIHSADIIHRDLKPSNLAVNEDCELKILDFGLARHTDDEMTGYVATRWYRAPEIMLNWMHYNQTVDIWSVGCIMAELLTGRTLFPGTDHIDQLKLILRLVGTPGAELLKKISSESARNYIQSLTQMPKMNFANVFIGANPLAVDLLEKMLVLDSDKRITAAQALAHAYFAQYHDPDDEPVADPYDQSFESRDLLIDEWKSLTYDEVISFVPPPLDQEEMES

MAPK14 (human), sequence (Q16539 whole entry, looked up): as above

IC50 [1] | SMILES | IC50 [2]
> 50 µM | COc1cc2ncnc(Nc3ccc(C)c(NC(=O)c4ccccc4)c3)c2cc1OC | 
> 50 µM | COc1cc2ncnc(Nc3cccc(Cl)c3)c2cc1OC | 
> 50 µM | COc1cc2ncnc(Nc3cccc(NC(=O)c4ccccc4)c3F)c2cc1OC | 
> 50 µM | COc1cc2ncnc(Nc3ccc(Cl)c(NC(=O)c4cccc(N(C)C)c4)c3)c2cc1OC | 
> 50 µM | COc1cc2ncnc(Nc3cc(NC(=O)c4cccc(N(C)C)c4)ccc3Cl)c2cc1OC | 47 nM
> 50 µM | COc1cc2ncnc(Nc3ccc(Cl)c(NC(=O)c4ccccc4)c3)c2cc1OC | 
> 50 µM | COc1cc2ncnc(Nc3cc(NC(=O)c4ccccc4)c(F)cc3F)c2cc1OC | 54 nM
> 50 µM | COc1cc2ncnc(Nc3cc(NC(=O)c4ccccc4)c(Cl)cc3F)c2cc1OC | 
> 50 µM | COc1cc2ncnc(Nc3cc(NC(=O)c4ccccc4)ccc3Cl)c2cc1OC | 88 nM
3.5 µM | COc1cc2ncnc(Nc3cc(NC(=O)c4cccc(N5CCOCC5)c4)ccc3C)c2cc1OCCN(C(C)C)C(C)C | 52 nM
> 50 µM | COc1cc2ncnc(Nc3cccc(NC(=O)c4cccc(N(C)C)c4)c3)c2cc1OC | 
> 50 µM | COc1cc2ncnc(Nc3cccc(NC(=O)c4ccccc4)c3)c2cc1OC | 
6.9 µM | COc1cc2ncnc(Nc3cc(NC(=O)c4cccc(N5CCOCC5)c4)ccc3C)c2cc1OCCN(C)C | 35 nM

Continued, compound first:

SMILES | IC50 [1] | IC50 [2]
Cc1ccc(NC(=O)c2ccnc(N3CCOCC3)c2)cc1Nc1ccnc(OCC(C)(C)CN(C)C)n1 |  | 79 nM
Cc1ccc(NC(=O)c2ccnc(N3CCOCC3)c2)cc1Nc1ccnc(OC2CCN(C)CC2)n1 |  | 45 nM
Cc1ccc(NC(=O)c2ccnc(N3CCOCC3)c2)cc1Nc1cc(NCCCN2CCCN(C)CC2)ncn1 | > 50 µM | 1220 nM
Cc1ccc(NC(=O)c2ccnc(N3CCOCC3)c2)cc1Nc1cc(NCCCN2CCCC2)ncn1 | > 50 µM | 
CCCN1CCC(Oc2nccc(Nc3cc(NC(=O)c4ccnc(N5CCOCC5)c4)ccc3C)n2)CC1 |  | 55 nM
CCCN1CCC(Oc2nccc(Nc3cc(NC(=O)c4cccc(N5CCOCC5)c4)ccc3C)n2)CC1 |  | 49 nM
COc1cc2ncnc(Nc3cc(NC(=O)c4cccc(N5CCOCC5)c4)ccc3C)c2cc1OCCN1CCCC1 |  | 39 nM
Cc1ccc(NC(=O)c2ccnc(N3CCOCC3)c2)cc1Nc1ccnc(Cl)n1 |  | 19 nM
COc1cc2ncnc(Nc3cc(NC(=O)c4cccc(N5CCOCC5)c4)ccc3C)c2cc1OCCN1CCOCC1 | 7.8 µM | 24 nM
Cc1ccc(NC(=O)c2ccnc(N3CCOCC3)c2)cc1Nc1ccnc(OCC2CCCN(C)C2)n1 (stereo not given) |  | 33 nM
COc1cc2ncnc(Nc3cc(NC(=O)c4ccccc4)ccc3C)c2cc1OC |  | 78 nM
Cc1ccc(NC(=O)c2ccnc(N3CCOCC3)c2)cc1Nc1ccnc(OCCCN(C)C)n1 |  | 37 nM
C=CCN(C)c1nccc(Nc2cc(NC(=O)c3ccnc(N4CCOCC4)c3)ccc2C)n1 | > 50 µM | 
Cc1ccc(NC(=O)c2ccnc(N3CCOCC3)c2)cc1Nc1ccnc(NCCCN2CCOCC2)n1 | > 50 µM | 98 nM
Cc1ccc(NC(=O)c2ccnc(N3CCOCC3)c2)cc1Nc1ccnc(NCCCN2CCCC2)n1 |  | 58 nM
Cc1ccc(NC(=O)c2ccnc(N3CCOCC3)c2)cc1Nc1cc(Cl)ncn1 | > 50 µM | 
CSc1nccc(Nc2cc(NC(=O)c3cc(F)cc(N4CCOCC4)c3)ccc2C)n1 |  | 14 nM
COc1cc2ncnc(Nc3cc(NC(=O)c4cccc(N5CCOCC5)c4)ccc3C)c2cc1OCCN1CCCCC1 | 4.6 µM | 56 nM
